Usually IC50 stands for the point on the concentration scale where inhibition reaches its midpoint.

The target in assay [1] is human full length His-tagged BTK (Homo sapiens (Human), UniProt Q06187). Description: BTK Lanthscreen Eu Kinase Binding assay. The following applies: TR-FRET tracer displacement, 2 nM BTK, 30 min pre-incubation. On the procedure:
BTK Lanthscreen® Eu Kinase Binding assay:
A Lanthscreen® Eu Kinase Binding assay (Life Technologies) was performed to quantitate the ability of test compounds to bind to BTK. The assay is based on the binding and displacement of Alexa Fluor647-labeled Kinase Tracer #236 to the ATP-binding site of human full length His-tagged BTK (Life Technologies cat # PV3587) with TR-FRET detection using a europium-labeled anti-His antibody. The assay was assembled in 384-well low volume NBS black plates (Corning) where 2 nM BTK and test compound in DMSO at varying concentrations were pre-incubated for 30 min at 28° C. in assay buffer consisting of 50 mM HEPES, pH 7.4, 10 mM MgCl2, 1 mM EGTA. 100 μM Na3VO4 and 0.01% Brij 35. Then, 2 nM of Eu-anti His antibody and 30 nM Kinase Tracer were added and incubated for […] at 28° C. Following incubation, TR-FRET signal was read on an Envision plate reader (Excitation: 340 nm; Emissions: 615 and 665 nm). The 665: 615 nm emission ratio was calculated and converted to POC compared to control and blank wells.
On the technique in general: TR-FRET usually uses a lanthanide donor and a delayed reading to cut background.

A further assay concerns the target BTK (Homo sapiens (Human), UniProt Q06187). The experiment in a line: Inhibition of IL-6 production in B cells co-stimulated with ODN 2006 and anti-hIgD. Type of assay: cell-based. As to conditions: primary CD19+ B cells, anti-human IgD + ODN 2006 stimulation, 18-24 hours; read-out: B-cell IL-6 IC50. The procedure:
Inhibition of IL-6 Production in B Cells Co-Stimulated with ODN 2006 and Anti-hIgD
Primary CD19+ B cells (AllCells # PB010F) are thawed and plated in RPMI containing 10% HI FBS in a 384-well tissue cultured plate at 20,000 cells/well. The cells are treated with test compound (0.5% DMSO final concentration) and incubated for 1 hour at 37° C., 5% CO2. Cells are then stimulated with 5 μg/mL Goat F(ab′)2 anti-human IgD (SouthernBiotech #2032) and 2 uM ODN 2006 (InvivoGen # till-2006) and incubated for 18-24 hours at 37° C., 5% CO2. IL-6 in the supernatant is measured using Meso Scale Discovery kit # K211AKB-6.
(§1) The compounds described herein show a range of selectivity against EGFR as measured in cellular assays (BTK activity measured by IL-6 production in primary CD19^+ cells; EGFR activity measured by EGFR phosphorylation in A431 cells).

In another assay the target is EGFR (Homo sapiens (Human), UniProt P00533). Description: Inhibition of EGFR autophosphorylation in A431 human epithelial cells stimulated with epithelial growth factor. As to conditions: 16 hours compound, EGF 60 ng/mL 10 minutes, read-out: A431 p-EGFR IC50. Type of assay: cell-based. On the procedure: Inhibition of EGFR Autophosphorylation in A431 Human Epithelial Cells Stimulated with Epithelial Growth Factor
A431 cells (ATCC # CRL-1555 FZ) are thawed and plated in DMEM containing 10% FBS in a 384-well tissue culture treated plate at 15,000 cells/well. After incubating for 24 hours at 37° C., 5% CO2, the cells are treated with test compound (1% DMSO final concentration) and incubated for 16 hours at 37° C., 5% CO2. EGF (Millipore, 01-107) is added at a final concentration of 60 ng/mL and incubated for 10 minutes. The medium is removed, the cells are lysed, and phospho EGFR is measured (Meso Scale Diagnostics, N31CB-1).
as §1

Sequence of human full length His-tagged BTK (Q06187 whole entry): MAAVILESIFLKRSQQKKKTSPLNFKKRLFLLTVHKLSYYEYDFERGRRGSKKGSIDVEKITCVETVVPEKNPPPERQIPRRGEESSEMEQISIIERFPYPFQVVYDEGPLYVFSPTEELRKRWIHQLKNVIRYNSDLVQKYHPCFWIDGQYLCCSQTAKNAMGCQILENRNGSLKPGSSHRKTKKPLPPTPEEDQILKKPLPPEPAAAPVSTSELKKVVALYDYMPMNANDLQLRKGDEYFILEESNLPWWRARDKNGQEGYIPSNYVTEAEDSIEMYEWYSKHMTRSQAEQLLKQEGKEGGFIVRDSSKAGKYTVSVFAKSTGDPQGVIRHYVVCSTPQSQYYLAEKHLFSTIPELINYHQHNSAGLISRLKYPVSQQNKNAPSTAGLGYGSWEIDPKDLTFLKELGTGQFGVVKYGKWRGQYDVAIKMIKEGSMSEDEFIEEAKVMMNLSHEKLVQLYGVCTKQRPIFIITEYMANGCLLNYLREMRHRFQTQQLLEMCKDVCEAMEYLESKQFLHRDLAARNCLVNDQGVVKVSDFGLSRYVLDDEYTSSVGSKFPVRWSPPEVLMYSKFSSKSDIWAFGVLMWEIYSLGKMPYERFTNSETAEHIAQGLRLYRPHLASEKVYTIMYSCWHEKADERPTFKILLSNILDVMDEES
Sequence of BTK (Q06187 whole entry): as above
Sequence of EGFR (P00533 25-1210): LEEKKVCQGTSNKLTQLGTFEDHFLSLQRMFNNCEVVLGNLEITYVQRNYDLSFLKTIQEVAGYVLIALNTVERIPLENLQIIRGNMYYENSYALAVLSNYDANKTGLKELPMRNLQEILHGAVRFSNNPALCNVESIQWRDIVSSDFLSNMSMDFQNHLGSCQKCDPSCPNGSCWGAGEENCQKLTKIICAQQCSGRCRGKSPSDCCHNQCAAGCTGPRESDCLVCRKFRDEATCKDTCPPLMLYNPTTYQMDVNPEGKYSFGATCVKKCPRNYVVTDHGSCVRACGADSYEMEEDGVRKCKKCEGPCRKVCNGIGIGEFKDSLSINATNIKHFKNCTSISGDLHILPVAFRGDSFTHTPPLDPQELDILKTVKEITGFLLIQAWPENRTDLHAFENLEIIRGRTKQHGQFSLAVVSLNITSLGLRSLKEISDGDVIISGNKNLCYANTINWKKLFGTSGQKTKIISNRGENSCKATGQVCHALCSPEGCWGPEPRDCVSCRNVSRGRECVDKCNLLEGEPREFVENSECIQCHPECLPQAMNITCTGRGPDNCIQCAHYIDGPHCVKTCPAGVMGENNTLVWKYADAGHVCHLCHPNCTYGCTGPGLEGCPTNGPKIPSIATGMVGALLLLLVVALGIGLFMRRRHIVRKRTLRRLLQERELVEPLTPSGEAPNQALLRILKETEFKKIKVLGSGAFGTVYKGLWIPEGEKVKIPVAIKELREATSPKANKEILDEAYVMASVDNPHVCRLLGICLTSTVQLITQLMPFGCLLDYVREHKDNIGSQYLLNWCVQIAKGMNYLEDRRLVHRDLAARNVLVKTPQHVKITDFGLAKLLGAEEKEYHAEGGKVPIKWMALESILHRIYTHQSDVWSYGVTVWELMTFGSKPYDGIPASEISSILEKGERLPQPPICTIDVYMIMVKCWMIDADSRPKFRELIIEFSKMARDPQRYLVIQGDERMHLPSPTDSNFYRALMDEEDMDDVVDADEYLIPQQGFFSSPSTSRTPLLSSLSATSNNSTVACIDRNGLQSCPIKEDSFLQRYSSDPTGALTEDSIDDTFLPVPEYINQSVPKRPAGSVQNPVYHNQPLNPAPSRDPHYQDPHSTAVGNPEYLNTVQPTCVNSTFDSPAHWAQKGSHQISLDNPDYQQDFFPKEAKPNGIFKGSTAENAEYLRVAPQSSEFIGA

As for `C=CC(=O)N1CC(c2cc3cc(C4CC4)ccc3c(=O)n2-c2cccc(-c3cccc(C(N)=O)c3)c2CO)C1` [Example 5], the results for the concentration for half-maximal inhibition (IC50) (in assay [1]; on BTK; on EGFR) were 5.2 nM, 100 nM and > 10000 nM, respectively.

The record behind these values is US10570118B2, “Isoquinolones as BTK inhibitors” (Boehringer Ingelheim International GmbH, priority 2016, dated 2020).
